Assay results from patent EP1268545B1, “POTASSIUM CHANNEL PROTEIN KCNQ5, A TARGET FOR DISEASES OF CENTRAL NERVOUS SYSTEM AND CARDIOVASCULAR SYSTEM” (priority 2000, dated 2001).

Legend:
[1] = test system: human KCNQ5 (hKCNQ5) potassium channel, SEQ ID No 2; experiment: Two-electrode voltage-clamp of KCNQ5 currents in Xenopus oocytes injected with cRNA; format: cell-based; conditions: 3s depolarizing step from -100 mV to 0 mV
Description: Xenopus laevis oocytes were obtained from tricaine anaesthetized animals. Ovaries were collagenase treated (1 mg/ 1 ml, Worthington, type II) in OR 2 solution (NaCl 82.5 mM, KCl 2 mM, MgCl2 1 mM, HEPES 5 mM, pH 7.4) for 120 min and subsequently stored in recording solution ND-96 (NaCl 96 mM, KCI 2 mM, CaCl2 1.8 mM, MgCl2 1 mM, HEPES 5 mM, pH 7.4) with additional NaPyruvate (275 mg/l), Theophylline (90 mg/l) and Gentamycin (50 mg/l) at 18°C. […] Standard two-electrode voltage-clamp recordings were performed at room temperature with a Turbo Tec 10CD (NPI) amplifier, an ITC-16 interface combined with Pulse software (HEKA) and Origin for data aquisition on Pentium 11 PC. Macroscopic currents were recorded 2-4 days after injection. All fitting procedures were based on the simplex algorithm. Student's t test was used to test for statistical significance, which was assumed if P<0.05 and indicated by *.
However, it can be described by a biexponential function. […] KCNQ5 deactivation was well fitted to a second order exponential function. The two components of deactivation were determined at a repolarizing voltage of -100 mV following a 3s depolarizing step to +40 mV.

[2] = test system: KCNQ1; conditions: cited from earlier work
[3] = test system: KCNQ3; conditions: at 10µM; cited from earlier work
[4] = test system: KCNQ2; conditions: at 10µM; cited from earlier work

Structure (SMILES) | block of KCNQ5 currents ([1]; at 100 µM) [%] | block of KCNQ1 ([2]; at 100 µM) [%] | reduction of KCNQ5 current ([1]; at 30 µM) [%] | IC50 ([2]; read-out: IC50 (block of KCNQ1)) [µM] | inhibition of KCNQ3 [3] [%] | inhibition of KCNQ2 [4]
CCS(=O)(=O)N(C)[C@H]1c2cc(C#N)ccc2OC(C)(C)[C@@H]1O (racemic) [chromanol 293B] | 45 | 80 |  |  |  | 
CCCCCCC[N+](CC)(CC)CCCCc1ccc(Cl)cc1 [Clofilium] |  |  | 40 | < 10 | 30 | little inhibition
